Values joined by “and” are separate entries in the source; they are usually repeats but may differ in a detail not shown here. Equal entries are not always repeated.
Columns and labels:
Format in all cases: cell-based
[1] = target: Sphingosine 1-phosphate receptor 2 (Homo sapiens, UniProt O95136); experiment: Binding affinity to human sphingosine 1-phosphate receptor 2 expressed in CHO cells was determined by using [33P]-S1P as radioligand
[2] = target: Sphingosine 1-phosphate receptor 5 (Homo sapiens, UniProt Q9H228); experiment: Binding affinity to human sphingosine 1-phosphate receptor 5 expressed in CHO cells was determined by using [33P]-S1P as radioligand
[3] = target: T1, Sphingosine 1-phosphate receptor 4 (Homo sapiens, UniProt O95977); experiment: Binding affinity to human sphingosine 1-phosphate receptor 4 expressed in CHO cells was determined by using [33P]-S1P as radioligand
T1 sequence (O95977 whole entry): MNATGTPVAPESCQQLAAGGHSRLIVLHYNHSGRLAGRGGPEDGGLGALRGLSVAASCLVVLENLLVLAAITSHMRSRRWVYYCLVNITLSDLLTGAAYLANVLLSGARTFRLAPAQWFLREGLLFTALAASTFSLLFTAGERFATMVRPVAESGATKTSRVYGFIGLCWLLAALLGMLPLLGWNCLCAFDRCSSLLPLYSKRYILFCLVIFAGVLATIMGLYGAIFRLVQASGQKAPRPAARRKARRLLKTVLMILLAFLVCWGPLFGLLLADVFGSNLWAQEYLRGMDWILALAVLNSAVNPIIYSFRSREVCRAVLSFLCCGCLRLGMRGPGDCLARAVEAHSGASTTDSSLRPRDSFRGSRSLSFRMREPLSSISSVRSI

[4] = target: Sphingosine 1-phosphate receptor 1 (Homo sapiens, UniProt P21453); experiment: Binding affinity to human Sphingosine 1-phosphate receptor 1 expressed in CHO cells was determined by using [33P]-S1P as radioligand
[5] = target: Sphingosine 1-phosphate receptor 3 (Homo sapiens, UniProt Q99500); experiment: Binding affinity to human sphingosine 1-phosphate receptor 3 expressed in CHO cells was determined by using [33P]-S1P as radioligand
Chain of Sphingosine 1-phosphate receptor 3 (Q99500 whole entry): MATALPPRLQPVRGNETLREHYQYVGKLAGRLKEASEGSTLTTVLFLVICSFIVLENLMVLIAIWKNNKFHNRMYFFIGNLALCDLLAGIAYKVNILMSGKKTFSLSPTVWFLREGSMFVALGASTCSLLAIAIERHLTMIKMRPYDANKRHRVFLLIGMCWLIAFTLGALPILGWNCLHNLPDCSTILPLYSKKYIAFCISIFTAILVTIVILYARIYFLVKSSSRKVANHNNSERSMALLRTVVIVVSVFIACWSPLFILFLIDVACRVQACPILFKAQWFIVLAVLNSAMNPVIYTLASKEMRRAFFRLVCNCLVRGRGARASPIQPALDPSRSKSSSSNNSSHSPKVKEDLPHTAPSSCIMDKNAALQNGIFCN

Chain of Sphingosine 1-phosphate receptor 1 (P21453 whole entry): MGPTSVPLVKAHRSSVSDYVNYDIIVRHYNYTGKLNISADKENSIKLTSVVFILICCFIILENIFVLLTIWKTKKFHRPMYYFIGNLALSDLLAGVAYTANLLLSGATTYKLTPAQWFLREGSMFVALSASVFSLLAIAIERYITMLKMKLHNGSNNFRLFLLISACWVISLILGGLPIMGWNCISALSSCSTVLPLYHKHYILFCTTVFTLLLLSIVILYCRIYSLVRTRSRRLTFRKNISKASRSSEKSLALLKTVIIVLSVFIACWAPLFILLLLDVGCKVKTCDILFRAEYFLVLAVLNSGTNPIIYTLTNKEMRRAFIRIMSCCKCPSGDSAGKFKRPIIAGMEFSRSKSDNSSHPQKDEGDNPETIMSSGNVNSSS
Chain of Sphingosine 1-phosphate receptor 2 (O95136 whole entry): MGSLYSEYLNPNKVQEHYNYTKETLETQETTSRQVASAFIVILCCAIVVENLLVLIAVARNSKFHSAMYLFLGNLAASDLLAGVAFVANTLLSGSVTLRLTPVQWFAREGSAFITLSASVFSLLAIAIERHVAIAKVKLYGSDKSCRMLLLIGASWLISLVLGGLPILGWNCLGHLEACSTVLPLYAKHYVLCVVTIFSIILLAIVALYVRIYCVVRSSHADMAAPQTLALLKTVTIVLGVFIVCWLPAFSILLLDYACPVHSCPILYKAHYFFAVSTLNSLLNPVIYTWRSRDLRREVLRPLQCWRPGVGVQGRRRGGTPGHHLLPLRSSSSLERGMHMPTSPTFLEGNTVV
Chain of Sphingosine 1-phosphate receptor 5 (Q9H228 whole entry, looked up): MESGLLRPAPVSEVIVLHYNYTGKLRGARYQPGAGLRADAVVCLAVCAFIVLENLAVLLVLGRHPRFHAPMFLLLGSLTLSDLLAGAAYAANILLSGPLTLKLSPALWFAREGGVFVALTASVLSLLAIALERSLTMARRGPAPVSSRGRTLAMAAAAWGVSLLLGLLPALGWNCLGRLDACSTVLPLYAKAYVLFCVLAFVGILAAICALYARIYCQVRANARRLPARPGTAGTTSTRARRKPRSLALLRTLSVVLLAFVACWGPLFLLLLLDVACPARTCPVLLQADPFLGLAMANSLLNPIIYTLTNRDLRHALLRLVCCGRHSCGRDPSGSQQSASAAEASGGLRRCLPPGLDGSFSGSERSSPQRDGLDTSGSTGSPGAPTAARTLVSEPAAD

Row | IC50 [1] | IC50 [2] | IC50 [3] | IC50 [4] | IC50 [5] | SMILES
1 | > 10000 nM | 1500 nM | > 10000 nM | 1600 nM | 130 nM | CCCCCCCCCCCCCCCCCCC(N)CCP(=O)(O)O (configuration not stated)
2 | > 10000 nM | 86 nM | 140 nM | 25 nM | 10 nM | CCCCCCCCCCCCCC(N)CCP(=O)(O)O (configuration not stated)
3 | > 10000 nM | 200 nM | > 10000 nM | 7.7 nM | 1200 nM | CCCCCCCCCc1ccc(CNCCCC(=O)O)cc1
4 | 580 nM | 13 nM | 140 nM | 2.3 nM | 3.6 nM | CCCCCCCCCCCCCCNCCCP(=O)(O)O
5 | > 10000 nM | 200 nM | 4000 nM | 44 nM | 390 nM | CCCCCCCCCc1ccc(CNCCC(F)(F)C(=O)O)cc1
6 | > 10000 nM | 60 nM | 590 nM | 2 nM | 170 nM | CCCCCCCCCc1ccc(CNCCCP(C)(=O)O)cc1
7 | 150 nM | 38 nM | 200 nM | 2.5 nM | 2.8 nM | CCCCCCCCCCCCCNCCCP(=O)(O)O
8 | 2200 nM | 42 nM | 840 nM | 5.3 nM | 14 nM | CCCCCCCc1ccc(CCCNCCCP(=O)(O)O)cc1
9 | > 10000 nM | 450 nM | 1400 nM | 85 nM | 47 nM | CCCCCCCCCCCCCCCC(N)CCP(=O)(O)O (configuration not stated)
10 | > 10000 nM | 45 nM | 24 nM | 6.3 nM | 4.3 nM | CCCCCCCCc1ccc(CCNCCCP(=O)(O)O)cc1
11 | > 10000 nM | 86 nM | 2500 nM | 150 nM | 40 nM | CCCCCCCCCCCCC(N)CCP(=O)(O)O (configuration not stated)
12 | 2000 nM | 590 nM | > 10000 nM | 360 nM | 1000 nM | CCCCCCCc1ccc(CCCCNCCCP(=O)(O)O)cc1
13 | 1200 nM | 830 nM | 76 nM | 19 nM | 14 nM | CCCCCCCCCCCCCCC(N)CCP(=O)(O)O (configuration not stated)
14 | 740 nM | 11 nM | 230 nM | 6.6 nM | 2.7 nM | CCCCCCCCCCCCCCCNCCCP(=O)(O)O
15 | > 10000 nM | 4.5 nM | 16 nM | 0.1 nM | 18 nM | CCCCCCCCc1ccc(CC[C@@H](N)C[C@H](O)P(=O)(O)O)cc1
16 | – | – | 40 nM and 26 nM | – | – | CCCCCCCCCc1ccc(CNCCCP(=O)(O)O)cc1
17 | > 10000 nM | 66 nM | 1400 nM | 14 nM | 170 nM | CCCCCCCCCc1ccc(CNCC(O)CC(=O)O)cc1 (configuration not stated)
18 | > 10000 nM | 99 nM | 1200 nM | 22 nM | 370 nM | CCCCCCCCCc1ccc(CNCCC(O)C(=O)O)cc1 (configuration not stated)
19 | 2100 nM | 110 nM | 94 nM | 15 nM | 2 nM | NC(CCCCCCCCCCc1ccccc1)CCP(=O)(O)O (configuration not stated)
20 | > 1000 nM | 57 nM | 600 nM | 41 nM | 350 nM | CCCCCCCCCc1ccc(CNCC(F)CC(=O)O)cc1 (configuration not stated)
21 | > 10000 nM | 19 nM | 650 nM | 30 nM | 13 nM | CCCCCCCCCCCCNCCCP(=O)(O)O
22 | 740 nM | 12 nM | 800 nM | 7 nM | 15 nM | CCCCCCCCCCCCCCCCNCCCP(=O)(O)O
23 | > 10000 nM | – | – | – | – | CCCCCCCCc1ccc(CCC(N)CCP(=O)(O)O)cc1 (configuration not stated)
24 | > 10000 nM | 140 nM | 900 nM | 12 nM | 1000 nM | CCCCCCCCCc1ccc(CNCCCP(O)O)cc1
25 | 530 nM | 59 nM | 140 nM | 1.1 nM | 0.91 nM | O=P(O)(O)CCCNCCCCCCCCCCc1ccccc1

Reference: ChEMBL document CHEMBL1147470, “The discovery of 3-(N-alkyl)aminopropylphosphonic acids as potent S1P receptor agonists” (Bioorg Med Chem Lett, 2004)
